SMILES strings stand for the structures.

Common to all, as to assay type: cell-based
Experiment [1] relates to HT-1080 cell. Briefly: Inhibitory action on collagen gel contraction (cell-containing collagen gel). Also noted: key: When a contraction level was almost equal to that of a group to which Ripasudil was not added, (+) was used; (++) was used in the case where contraction was inhibited; (+++) was used in the case where contraction was significantly inhibited. Particulars: HT1080 collagen gel, observed after two or three days. The method, then: HT-1080 cell suspension adjusted to a density of 150,000 to 200,000 cells/mL with a medium (medium: E'MEM (Sigma)/10% FBS/NEAA/PCSM), and a solution, obtained by mixing A, B and C solutions (A solution: Cellmatrix (Collagen Type I 3 mg/mL), B solution: concentrated culture medium, 10 x MEM Hank's culture medium, and C solution: buffer for reconstitution) of collagen gel culture kit (Nitta Gelatin Inc.) mixed at a ratio of 8 : 1 : 1 and cooling the obtained mixture, were mixed at a ratio of 1.4 : 1, and the obtained mixture was seeded in a 48 Well Plate at 500 µL/well and gelatinized in a CO2 incubator to produce a cell-containing collagen gel. After gelation, 1 mL of the medium in which Ripasudil was adjusted to 0.1 µM, 1.0 µM or 10.0 µM was added on the gel, and an injection needle was inserted between the gel and the wall surface to release the gel from the wall surface, and the gel was incubated to stand in a CO2 incubator. After two or three days, the contraction of the gel was observed, and photos were taken to evaluate the actions of Ripasudil.

Experiment [2] has as its system Human lens epithelial cells (SRA 01/04). Briefly: Cell proliferation (DNA synthesis ability) of lens epithelial cells, BrdU incorporation ELISA. Particulars: SRA 01/04 cells, 24 hours, FIG. 1. The method, then:
Human lens epithelial cells (SRA 01/04 (RIKEN Cell Bank)) were cultured using 20% FBS-DMEM medium under conditions at 37°C and 5% CO2. The concentration of SRA 01/04 cells was adjusted using 2% FBS-DMEM medium, and the cells were seeded in a 96-well plate at 100 µL/well (5000 cells/well) and incubated for 24 hours under conditions at 37°C and 5% CO2. The medium was exchanged to 5% FBS-DMEM medium, to which TGFβ was added at 10 ng/mL (final concentration) or Ripasudil at 10, 30, or 100 µM (final concentration), and then the cells were cultured for another 24 hours. The cell proliferation ELISA, BrdU (colorimetric) kit (Roche) was used to measure the amount of intracellular 5-bromo-2'-deoxyuridine (BrdU) incorporation at a measurement wavelength of 450 nm with Multiskan MS version 8.0 (LABSYSTEMS), thereby to evaluate the effect on the cell proliferation of SRA 01/04 cells.
(In general: Incorporation of labelled thymidine or its analogues reports DNA synthesis.)

Experiment [3] has as its system Human normal fibroblasts. The experiment is described as follows: Fibroblast proliferation, BrdU incorporation (Cell Proliferation ELISA BrdU kit). Particulars: cultured 2 days, no added Ripasudil = 100%. Here is the method:
Human normal fibroblasts (Sanko Junyaku Co., Ltd.) were seeded at 2000 cells/well and cultured overnight. Next day, the medium (FGM-2 (Sanko Junyaku Co., Ltd.)) was exchanged (150 µL) and then Ripasudil was added in a volume of 10 µL to make final concentrations of 0.1 µM, 1.0 µM, and 10.0 µM. […] Fixation and antibody addition, washing and color development, and reaction stopping were performed according to the protocol of the Cell Proliferation ELISA BrdU kit (Roche). Then, a plate reader was used to measure OD540-620 to evaluate the action of Ripasudil on fibroblast proliferation. […]

`C[C@H]1CNCCCN1S(=O)(=O)c1cccc2cncc(F)c12` [Ripasudil, 4-fluoro-5-{[(2S)-2-methyl-1,4-diazepan-1-yl]sulfonyl}isoqu inoline]: the Inhibition of contraction result in experiment [1] (Ripasudil 0.1 µM) is “+”; in experiment [1] (Ripasudil 1.0 µM), “++”; in experiment [1] (Ripasudil 10.0 µM), “+++”. Further, the “DNA synthesis of human lens epithelial cells” value in experiment [2] (Ripasudil 30 µM) is recorded as “statistically significant decrease”; in experiment [2] (Ripasudil 10, 30 or 100 µM), “dose-dependent inhibitory action”. Further, the “BrdU incorporation (% of control)” value in experiment [3] (Ripasudil 0.1 µM) is recorded as 80.0 % of control; in experiment [3] (Ripasudil 1.0 µM) it was 59.3 % of control; in experiment [3] (Ripasudil 10.0 µM), 10.9 % of control.

For the origin of these results see patent EP3290040A1, “PROPHYLACTIC AND THERAPEUTIC AGENT FOR COMPLICATIONS AFTER CATARACT SURGERY” (Honjo, Megumi, priority 2015, dated 2016).
